# Experimental data published in patent US11089783B2, “2-(het)aryl-substituted fused heterocycle derivatives as pesticides” (Bayer Aktiengesellschaft, priority 2017, dated 2021).
# What was measured:
# Type in all cases: in vivo
# Lucilia cuprina = Lucilia cuprina test; settings: 48 h, L1 larvae, after 2 days, read-out: efficacy (kill)
# How it was run: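 About 20 L1 larvae of Lucilia cuprina placed on minced horsemeat containing compound (DMSO stock diluted in water to test concentration). Kill (%) scored after 2 days; 100% = all larvae dead, 0% = none dead.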
# Tetranychus urticae = Tetranychus urticae spray test, OP-resistant (TETRUR)
# How it was run: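 Bean leaf discs infested with all stages of OP-resistant Tetranychus urticae were sprayed with compound formulated in solvent and water containing 1000 ppm emulsifier. Efficacy was scored after 6 days as % mites killed (100% = all killed).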
# Myzus persicae = Myzus persicae drench test (MYZUPE D), savoy cabbage plants; settings: soil, 240 h, 0.16 ppm, 10 dat, read-out: % efficacy
# Protocol: [table] To produce an appropriate active ingredient formulation, 1 part by weight of active ingredient is mixed with the specified amounts of solvent and emulsifier and the concentrate is diluted to the desired concentration with water, it being necessary to take into account the volume of soil into which drenching is effected. It should be ensured that a concentration of 40 ppm of emulsifier in the soil is not exceeded. For production of further test concentrations, the mixture is diluted with water. Savoy cabbage plants (Brassica oleracea) in soil pots, infested by all stages of the green peach aphid (Myzus persicae), are drenched with an active ingredient formulation of the desired concentration. After the desired time, the efficacy in % is determined. 100% means that all the aphids have been killed; 0% means that no aphids have been killed.
# Nezara viridula = Nezara viridula spray test (NEZARA / NEZAVI); settings: Nezara viridula, 96 h, 4 g/ha, 4 dat, read-out: % efficacy
# How it was run: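 Barley plants infested with Nezara viridula larvae were sprayed with active ingredient in solvent/emulsifier water (1000 ppm emulsifier; ammonium salt or penetrant at 1000 ppm if added). Efficacy scored as % mortality after the set time (100% = all bugs killed).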
# Musca domestica = Musca domestica test; settings: 100 ppm, adult houseflies, after 2 days
# Protocol: Solvent: dimethyl sulfoxide To produce a suitable active ingredient formulation, 10 mg of active ingredient are mixed with 0.5 ml of dimethyl sulfoxide, and the concentrate is diluted with water to the desired concentration. Vessels containing a sponge treated with sugar solution and the active ingredient formulation of the desired concentration are populated with 10 adult houseflies (Musca domestica). After 2 days, the kill in % is determined. 100% means that all of the flies have been killed; 0% means that none of the flies have been killed.
# Spodoptera frugiperda = Spodoptera frugiperda spray test; settings: 100 g/ha, after 6 days
# Protocol: [table] To produce a suitable active ingredient formulation, 1 part by weight of active ingredient is dissolved with the specified parts by weight of solvent and made up to the desired concentration with water containing an emulsifier concentration of 1000 ppm. To produce further test concentrations, the formulation is diluted with emulsifier-containing water. Leaf discs of maize (Zea mays) are sprayed with an active ingredient formulation of the desired concentration and, after drying, populated with caterpillars of the armyworm (Spodoptera frugiperda). After 6 days, the efficacy in % is determined. 100% means that all the caterpillars have been killed; 0% means that no caterpillar has been killed.
# Aphis gossypii = Aphis gossypii spray test (APHIGO), cotton plants; settings: Aphis gossypii, 144 h, 4 ppm, 6 dat, read-out: % efficacy
# How it was run: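 Cotton plants (Gossypium hirsutum) heavily infested with cotton aphids were sprayed with the active ingredient formulated in emulsifier-containing water (1000 ppm emulsifier), with ammonium salt or penetrant added at 1000 ppm where required. After the set time, percent kill was determined, where 100% means all aphids dead.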
# Phaedon cochleariae = Phaedon cochleariae spray test (PHAECO S), cabbage leaves; settings: Phaedon cochleariae, 168 h, 7 dat, read-out: % efficacy
# Protocol: [table] To produce an appropriate active ingredient formulation, 1 part by weight of active ingredient is dissolved with the specified parts by weight of solvent and made up with water containing an emulsifier concentration of 1000 ppm until the desired concentration is attained. To produce further test concentrations, the mixture is diluted with emulsifier-containing water. If addition of ammonium salts or/and penetrants is required, these are each added to the preparation solution in a concentration of 1000 ppm. Cabbage leaves (Brassica oleracea) are sprayed with an active ingredient formulation of the desired concentration and populated with larvae of the mustard beetle (Phaedon cochleariae). After the desired time, the kill in % is determined. 100% means that all beetle larvae have been killed; 0% means that no beetle larvae have been killed.
# Meloidogyne incognita = Meloidogyne incognita drench test (MELGIN D); settings: soil, 504 h, 21 dat, read-out: % efficacy
# Protocol: [table] To produce an appropriate active ingredient formulation, 1 part by weight of active ingredient is mixed with the specified amounts of solvent and emulsifier and the concentrate is diluted to the desired concentration with water, it being necessary to take into account the volume of soil into which drenching is effected. It should be ensured that a concentration of 20 ppm of emulsifier in the soil is not exceeded. For production of further test concentrations, the mixture is diluted with water. Pots filled with soil (loamy sand) are drenched with the active ingredient solution. An egg/larvae suspension of the southern root-knot nematode (Meloidogyne incognita) is added, and lettuce seeds are scattered over the soil surface and covered with quartz sand. The lettuce seeds germinate and the seedlings develop. The root-knots develop on the roots. After the desired time, the nematicidal effect is determined with reference to the root-knot formation in %. 100% means that no root-knots were found; 0% means that the number of root-knots on the treated plants corresponds to that on the untreated control.
# [1] = Tetranychus urticae, 144 h, TETRUR, 6 dat, read-out: % efficacy
Structure (SMILES),pest or weed control at 100 ppm (Lucilia cuprina) [%],Emax at 100 g/ha (Tetranychus urticae; [1]) [%],Emax at 0.16 ppm (Myzus persicae) [%],Emax at 4 g/ha (Nezara viridula) [%],efficacy (kill) (Musca domestica) [%],efficacy (Spodoptera frugiperda) [%],"efficacy (Tetranychus urticae; 4 g/ha, after 6 days) [%]","Emax at 20 g/ha (Tetranychus urticae; Tetranychus urticae, 144 h, TETRUR, 20 g/ha, 6 dat, read-out: % efficacy) [%]",Emax at 4 ppm (Aphis gossypii) [%],Emax at 4 ppm (Phaedon cochleariae; 4 ppm) [%],Emax at 20 ppm (Phaedon cochleariae) [%],Emax at 1 ppm (Meloidogyne incognita; 1 ppm) [%],Emax at 2 ppm (Meloidogyne incognita; 2 ppm) [%]
CCS(=O)(=O)c1ccc(N(C)C(=O)NC)nc1-c1nc2cc(C(F)(F)C(F)(F)F)nnc2n1C [Example I-09],100,70,99,70,–,–,–,–,–,–,–,–,–
CCNC(=O)Nc1ccc(S(=O)(=O)CC)c(-c2nc3cc(C(F)(F)C(F)(F)F)nnc3n2C)n1 [Example I-13],100,–,–,80,80,83,–,–,–,–,–,–,–
"CCS(=O)(=O)c1ccc(NC(=O)NC)nc1-c1nc2cc(C(F)(F)C(F)(F)F)nnc2n1C [Example I-08, 1-{5-(ethylsulfonyl)-6-[7-methyl-3-(pentafluoroethyl)-7H-imidazo[4,5-c]pyridazin-6-yl]pyridin-2-yl}-3-methylurea]",100,70,–,90,–,–,90,70,95,70,90,100,100
CCS(=O)(=O)c1ccc(NC(=O)N(C)C)nc1-c1nc2cc(C(F)(F)C(F)(F)F)nnc2n1C [Example I-10],100,70,–,80,90,–,–,–,75,–,80,–,–
